From ChEMBL document CHEMBL5375963, “Discovery of a First-in-Class Small-Molecule Ligand for WDR91 Using DNA-Encoded Chemical Library Selection Followed by Machine Learning” (J Med Chem, 2023)
Active and inactive are the calls of the source. The calls are words filed in the database; no cut-off is given here.

Tests used:
[1] = target: T1, WD repeat-containing protein 91 (Homo sapiens, UniProt A4D1P6); experiment: (§1) Binding affinity to C-terminal His6-tagged truncated WDR91 (unknown origin) (P392 to A747 residues) expressed in baculovirus-infected Sf9 cells assessed as dissociation constant incubated for 72 to 96 hrs by SPR analysis
T1 sequence (A4D1P6 whole entry): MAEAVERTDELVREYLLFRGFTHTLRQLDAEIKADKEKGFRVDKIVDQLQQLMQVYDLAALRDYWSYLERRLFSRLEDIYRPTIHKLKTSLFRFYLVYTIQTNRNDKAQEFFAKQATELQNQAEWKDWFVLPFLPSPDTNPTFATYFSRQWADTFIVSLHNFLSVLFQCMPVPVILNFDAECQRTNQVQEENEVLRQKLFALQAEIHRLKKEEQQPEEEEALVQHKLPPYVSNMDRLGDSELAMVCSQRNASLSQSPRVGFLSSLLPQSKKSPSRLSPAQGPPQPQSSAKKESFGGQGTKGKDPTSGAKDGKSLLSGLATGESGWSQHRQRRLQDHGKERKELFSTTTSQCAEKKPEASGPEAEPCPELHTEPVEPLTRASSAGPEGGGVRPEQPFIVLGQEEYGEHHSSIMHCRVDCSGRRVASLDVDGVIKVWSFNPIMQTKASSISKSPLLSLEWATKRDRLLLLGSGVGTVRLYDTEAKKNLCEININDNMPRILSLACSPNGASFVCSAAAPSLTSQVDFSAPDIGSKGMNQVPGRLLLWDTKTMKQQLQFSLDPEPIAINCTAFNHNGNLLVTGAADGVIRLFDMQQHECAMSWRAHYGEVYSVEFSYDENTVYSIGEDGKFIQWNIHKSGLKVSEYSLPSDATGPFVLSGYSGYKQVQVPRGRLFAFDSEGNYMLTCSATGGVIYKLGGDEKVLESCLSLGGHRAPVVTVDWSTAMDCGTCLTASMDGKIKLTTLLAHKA

[2] = target: T2, WD repeat-containing protein 91 (Homo sapiens) (UniProt A4D1P6); experiment: Binding affinity to C-terminal His6-tagged truncated WDR91 (unknown origin) (P392 to A747 residues) expressed in baculovirus-infected Sf9 cells assessed as maximum response incubated for 2 hrs relative to control
T2 sequence (whole entry): T1 sequence (A4D1P6 whole entry)

[3] = target: T2, WD repeat-containing protein 91 (Homo sapiens); experiment: as §1; details: time 72-96 hrs
[4] = target: T2, WD repeat-containing protein 91 (Homo sapiens); experiment: Binding affinity to C-terminal His6-tagged truncated WDR91 (unknown origin) (P392 to A747 residues) expressed in baculovirus-infected Sf9 cells assessed as covalent adduct formation incubated for 2 hrs by LC-MS analysis
[5] = target: T2, WD repeat-containing protein 91 (Homo sapiens); experiment: Binding affinity to C-terminal His6-tagged truncated WDR91 (unknown origin) (P392 to A747 residues) expressed in baculovirus-infected Sf9 cells assessed as thermal stabilization by measuring change in melting temperature incubated for 2 hrs by differential scanning fluorimetry analysis

Work on `NC(=O)C1CCCN(c2ccc(C(=O)NC(c3ccc(Cl)cc3)C3CC3)cc2)C1` (stereo not drawn) yielded a Kd [1] of 37 µM.
`O=C(NC1(c2ccc(Cl)cc2)COC1)c1ccc(N2CCC(O)CC2)cc1` was tested, and the Kd [1] was 6 µM.
In the case of `O=C(NC1(c2ccc(Cl)cc2)COC1)c1ccc(C2(O)COC2)cc1`, the Kd [1] is reported as 20 µM.
Work on `Nc1ncnc2ccc(C(=O)NC3(c4ccc(Cl)cc4)COC3)cc12` yielded a Kd [1] of 42 µM.
`O=C(NC1(c2ccc(Cl)cc2)COC1)c1ccc(-c2cc[nH]n2)s1` was tested, and the Kd [1] was 8 µM.
`C=CC(=O)N1CCCc2c(C(=O)NC(c3ccc(F)cc3)C3CCCCC3)cccc21` (stereo not drawn) was tested, and the Rmax [2] was “inactive”, the Activity [3] was “inactive” and the Activity [4] was “inactive”.
With `O=C(NC1(c2ccc(Cl)cc2)COC1)c1ccc(CN2CCCC2=O)cc1` the Kd [1] was 11 µM.
For `C=CC(=O)N1CCCc2c(C(=O)NC(c3ccc(Cl)cc3)C3CC3)cccc21` (stereo not drawn), the Rmax [2] was 54%, the Kd [1] was 43 µM and the Activity [4] was “Active”. It also gave a ΔTm [5] of 4 °C.
Compound `O=C(NC(CCO)c1ccc(Cl)cc1)c1ccc(CN2CCCC2=O)cc1` (stereo not drawn) has a Kd [1] of 99 µM.
`O=C(NC(CCO)c1ccc(Cl)cc1)c1ccc(N2CCC(O)C2)cc1` (stereo not drawn) gave a Kd [1] of 15 µM.
For `O=C1Cc2c(cccc2C(=O)NC2(c3ccc(Cl)cc3)COC2)N1`, the Kd [1] was 22 µM.
`C=CC(=O)Nc1ccc(CC(=O)NC2(c3ccccc3)COC2)cc1` was tested, and the Rmax [2] was “inactive”, the Activity [3] was “inactive” and the Activity [4] was “inactive”.
`CC(=O)NCc1ccc(C(=O)NC2(c3ccc(Cl)cc3)COC2)cc1` showed a Kd [1] of 97 µM.
With `O=C(NC1(c2ccc(Cl)cc2)COC1)c1ccc2snnc2c1` the Kd [1] was 14 µM.
`NC(=O)C1CCCN(c2ccc(C(=O)NC(CCO)c3ccc(Cl)cc3)cc2)C1` (stereo not drawn) was tested, and the Kd [1] was 14 µM.
`Cc1cn2cc(C(=O)NC3(c4ccc(Cl)cc4)COC3)sc2n1` showed a Kd [1] of 11 µM.
In the case of `C=CC(=O)N1CCCc2c(C(=O)NC3(c4ccc(Cl)cc4)COC3)cccc21`, the Rmax [2] is reported as 53%, the Kd [1] is reported as 36 µM and the Activity [4] is reported as “Active”. The ΔTm [5] was 4 °C.
`O=C(c1ccc(N2CCC(O)C2)cc1)N1CC(O)(c2ccc(Cl)cc2)C1` (stereo not drawn) gave a Kd [1] of 16 µM.
